Measured values reported in ChEMBL document CHEMBL1141294, “Renierosides, cerebrosides from a marine sponge Haliclona (Reniera) sp” (2007).

Columns and labels:
Format in all cases: functional
Details in all cases: read-out: ED50 (the source's name)
[1] = system: A549; assay: Cytotoxicity against human A549 cells
[2] = system: SK-OV-3; assay: Cytotoxicity against human SK-OV-3 cells
[3] = system: SK-MEL-2; assay: Cytotoxicity against human SK-MEL-2 cells
[4] = system: XF498; assay: Cytotoxicity against human XF498 cells
[5] = system: HCT-15; assay: Cytotoxicity against human HCT15 cells

Measured: EC50

CCCCCC/C=C\CCCCCCCCCCCCCCCCCC[C@@H](O)C(=O)N[C@@H](CO[C@@H]1O[C@H](CO)[C@@H](O)[C@H](O)[C@H]1O)[C@H](O)/C=C/CC/C=C/C=C/CCCCCCC [RENIEROSIDE A1]
> 10 µg/mL: [1] | [2] | [3] | [4] | [5]

CCCCCCC/C=C/C=C/CC/C=C/[C@@H](O)[C@H](CO[C@@H]1O[C@H](CO)[C@@H](O)[C@H](O)[C@H]1O)NC(=O)[C@H](O)CCCCCCCCCCCCCC/C=C\CCCCCCCC [RENIEROSIDE A2]
> 10 µg/mL: [1] | [2] | [3] | [4] | [5]

CCCCCCC/C=C/C=C/CC/C=C/[C@@H](O)[C@H](CO[C@@H]1O[C@H](CO)[C@@H](O)[C@H](O)[C@H]1O)NC(=O)[C@H](O)CCCCCCCCCCCCC/C=C\CCCCCCCC [RENIEROSIDE A3]
> 10 µg/mL: [1] | [2] | [3] | [4] | [5]

CCCCCCC/C=C/C=C/CC/C=C/[C@@H](O)[C@H](CO[C@@H]1O[C@H](CO)[C@@H](O)[C@H](O)[C@H]1O)NC(=O)[C@H](O)CCCCCCCCCCCCCCCCCCCC [RENIEROSIDE A4]
> 10 µg/mL: [1] | [2] | [3] | [4] | [5]

CCCCCCC/C=C/C=C/CC/C=C/[C@@H](O)[C@H](CO[C@@H]1O[C@H](CO)[C@@H](O)[C@H](O)[C@H]1O)NC(=O)[C@H](O)CCCCCCCCCCCCCCCCCCCCCC [RENIEROSIDE A5]
> 10 µg/mL: [1] | [2] | [3] | [4] | [5]

CCCCCC/C=C\CCCCCCCCCCCCCCCCCC[C@@H](O)C(=O)N[C@@H](CO[C@@H]1O[C@H](CO)[C@@H](O)[C@H](O)[C@H]1O)[C@H](O)/C=C/CC/C=C(C)/C=C/CCCCCCC [RENIEROSIDE B1]
> 10 µg/mL: [1] | [2] | [3] | [4] | [5]

CCCCCCC/C=C/C(C)=C/CC/C=C/[C@@H](O)[C@H](CO[C@@H]1O[C@H](CO)[C@@H](O)[C@H](O)[C@H]1O)NC(=O)[C@H](O)CCCCCCCCCCCCCC/C=C\CCCCCCCC [RENIEROSIDE B2]
> 10 µg/mL: [1] | [2] | [3] | [4] | [5]

CCCCCC/C=C\CCCCCCCCCCCCCCCCC[C@@H](O)C(=O)N[C@@H](CO[C@@H]1O[C@H](CO)[C@@H](O)[C@H](O)[C@H]1O)[C@H](O)/C=C/CC/C=C(C)/C=C/CCCCCCC [RENIEROSIDE B3]
> 10 µg/mL: [1] | [2] | [3] | [4] | [5]
